Publication PMC4830539, “Chemical Inhibition of Histone Deacetylases 1 and 2 Induces Fetal Hemoglobin through Activation of GATA2” (PLoS ONE, 2016)

Experiments:
HbF = test system: HbF; design: method as in PMID 16888791, PMID 12393499, PMID 25808664, PMID 24606390, PMID 16939493; conditions: cell lines and primary cells; cited from earlier work
HbF protein = HbF protein by flow cytometry in BM cells (CS1, CS2); type: cell-based, human; conditions: 1 μM ACY-957 or 30 μM hydroxyurea
Procedure: CD34+ cells isolated from human bone marrow of healthy normal donors (Lonza, AllCells, or StemCell Technologies), referred to as BM cells throughout this work, were cultured using two distinct 2-phase culture systems. These systems have been described previously and are referred to as Culture System 1 (CS1) and Culture System 2 (CS2) throughout this work. CS1 expansion media is StemSpan SFEM (StemCell Technologies) supplemented with CC100 (StemCell Technologies), 100 U/mL penicillin and 100 μg/mL streptomycin. CC100 is a mix of Flt-3 ligand (FLT3LG), KIT ligand (KITLG), interleukin-3 (IL3), and interleukin-6 (IL6). CS1 differentiation media is StemSpan SFEM supplemented with 1 U/ml erythropoietin (EPO), 5 ng/mL IL3, 20 ng/mL KITLG, 2 μM dexamethasone, 1 μM beta-estradiol, 100 U/mL penicillin and 100 μg/mL streptomycin. CS2 expansion media is StemSpan SFEM supplemented with 1% glutamine, 40 μg/mL lipids (Sigma), 100 ng/mL KITLG, 10 ng/mL IL3, and 0.5 U/mL EPO. CS2 differentiation media is same as CS2 expansion media, except 3 U/mL EPO.
Flow cytometry was performed on a FC500 flow cytometer ([…]). Fetal hemoglobin protein was assayed using the Fetal Hemoglobin Test Kit (Life Technologies) according to manufacturer’s protocol. Samples were stained with FITC-conjugated mouse IgG1 anti-human HbF antibody (clone HbF-1, Life Technologies). Each sample was also stained with a FITC-conjugated mouse IgG1 isotype control antibody (clone X40, BD Biosciences) and used as a negative control. FETALtrol cells were used as positive controls (Trillium Diagnostics). TFRC and GYPA were detected on fresh cells by staining with 20 μL of PE-conjugated anti-human TFRC (clone M-A712, catalog 555537, BD Biosciences) and 0.5 μL of FITC- or APC-conjugated anti-human GYPA (clone GA-R2 (HIR2), catalog 559943 or 551336, BD Biosciences) in 200 μL PBS with 0.1% BSA for 40 min on ice. Forward and side scatter, or staining with 7AAD (catalog 559925, BD Biosciences), was used to identify viable cells.
To determine if the HBG mRNA induction observed in the presence of ACY-957 was associated with an increase in the HbF protein, CS1 and CS2 cells at day 5 were stained with a fluorescently conjugated anti-HbF antibody and evaluated by flow cytometry. HbF positive cells were increased by 2 to 3-fold upon treatment with ACY-957, which exceeded the response observed with hydroxyurea (Fig 2B and 2E).

erythroid progenitors = test system: erythroid progenitors; design: method as in PMID 16939493; conditions: by suppressing the EPO-mediated survival of CD36highGYPAhigh cells; cited from earlier work

Nc1ccccc1NC(=O)c1ccc(CNC(=O)OCc2cccnc2)cc1 [MS-275]
HbF induction (HbF): induce HbF

CCN(CC)Cc1ccc2cc(COC(=O)Nc3ccc(C(=O)NO)cc3)ccc2c1 [givinostat]
HbF induction (HbF): induce HbF

NC(=O)NO [hydroxyurea, reference compound]
HbF positive cells (HbF protein; CS1, day 5): 20% | MFI of HbF positive cells (HbF protein; CS1, day 5): 52 | HbF positive cells (HbF protein; CS2, day 5): 39% | MFI of HbF positive cells (HbF protein; CS2, day 5): 12

C/C=C1\NC(=O)[C@H]2CSSCC/C=C/[C@H](CC(=O)N[C@H](C(C)C)C(=O)N2)OC(=O)[C@H](C(C)C)NC1=O [romidepsin]
HbF induction (HbF): induce HbF | effect on erythroid progenitors (erythroid progenitors): accumulation CD36^highGYPA^mid erythroid progenitors

CC(/C=C/C(=O)NO)=C\[C@@H](C)C(=O)c1ccc(N(C)C)cc1 [trichostatinA]
effect on erythroid progenitors (erythroid progenitors): accumulation CD36^highGYPA^mid erythroid progenitors

O=C(CCCCCCC(=O)Nc1ccccc1)NO [vorinostat]
HbF induction (HbF): induce HbF
